Measured values: US8748466B2, “Isoxazole derivatives useful as antibacterial agents” (Pfizer Inc., priority 2011, dated 2014)
≈ marks a conversion by molar mass, not a printed value. Where two headings read alike, the source gives them in different places.

What was measured:
[1] = tested on: Escherichia coli EC-1: VOGEL, mouse virulent; assay: MIC determination (CLSI), EC-1; assay type: cell-based; conditions: read-out: EC-1 MIC
Description: (§1) The in vitro antibacterial activity of compounds described in the Examples was evaluated by minimum inhibitory concentration (MIC) testing according to Clinical and Laboratory Standards Institute (CLSI). See: Clinical and Laboratory Standards Institute. Methods for Dilution Antimicrobial Susceptibility Tests for Bacteria that Grow Aerobically; Approved Standard-Eighth Edition. CLSI document M7-A8 [ISBN 1-56238-689-1]. Clinical and Laboratory Standards Institute, 940 West Valley Road, Suite 1400, Wayne, Pa. 19087-1898 USA, 2006; also Clinical and Laboratory Standards Institute. Performance Standards for Antimicrobial Susceptibility Testing; Twentieth Informational Supplement. CLSI document M100-S20 [ISBN1-56238-716-2]. Clinical and Laboratory Standards Institute.
(§2) The MIC determination is a standard laboratory method for evaluating the antibacterial activity of a compound. The MIC represents the lowest drug concentration that inhibits visible growth of bacteria following overnight incubation. […] Typically, the drug concentration range is broken down into 2-fold increments (e.g., 0.06 μg/mL, 0.12 μg/mL. 0.25 μg/mL, 0.50 μg/mL, 1.0 μg/mL, etc.) and the various drug concentrations are all individually incubated overnight with approximately the same number of bacteria. The MIC is then determined by visually inspecting the drug effect at each concentration, and identifying the lowest drug concentration that has inhibited bacterial growth as compared to the drug free control. Typically, bacteria continue to grow at drug concentrations lower than the MIC and don't grow at concentrations at and above the MIC.
(§3) The MIC values described in Tables 4 and 5 below were derived from assays wherein each test compound was evaluated in duplicate. In cases where the duplicate values varied by 0-2-fold, the lower of the two values was reported below. Generally speaking, if the duplicate values varied by more than 2-fold, the assay was considered non-valid and was repeated until the variation between duplicate runs was 2-fold. In line with the CLSI guidelines referred to above, both control organisms and reference compounds were utilized in each MIC assay to provide proper quality control. MIC values generated with these control organisms and reference compounds were required to fall within a defined range for the assay to be considered valid and be included herein. Those skilled in the art will recognize that MIC values can and do vary from experiment to experiment. Generally speaking, it should be recognized that MIC values often vary +/−2-fold from experiment to experiment. While a single MIC is reported for each compound and each microorganism, the reader should not conclude that each compound was only tested once. Several of the compounds were subjected to multiple tests. The data reported in Tables 4 and 5 is reflective of the compound's relative activity and different MICs may have been generated on these occasions in line with the guidelines described above.
(§4) The following bacterial strains were used in these MIC determinations:
2) Escherichia coli EC-1: VOGEL, mouse virulent labeled as EC-1 in Tables 4 and 5;

[2] = tested on: Acinetobacter baumannii/haemolyticus: Multidrug-resistant clinical isolate AB-3167; assay: MIC determination (CLSI), AB-3167; assay type: cell-based; conditions: overnight incubation, duplicate, lower of the two values reported
Description: as §1, §2, §3, §4
3) Acinetobacter baumannii/haemolyticus: Multidrug-resistant clinical isolate labeled as AB-3167 in Tables 4 and 5;

[3] = tested on: Pseudomonas aeruginosa UC12120 (mouse virulent); assay: MIC determination (CLSI), PA-UC12120; assay type: cell-based; conditions: UC12120, read-out: PA-UC12120 MIC
Description: as §1, §2, §3, §4
1) Pseudomonas aeruginosa UC12120 (mouse virulent) labeled as PA-UC12120 in Tables 4 and 5;

[4] = target: T1, Pseudomonas aeruginosa LpxC enzyme (Pseudomonas aeruginosa, UniProt P47205); assay: LpxC enzyme IC50 assay (PA LpxC enzyme IC50), BioTrove RapidFire mass spectrometry; assay type: biochemical
T1 construct: made in house; host or cells: E. coli
T1 sequence (P47205 1-303): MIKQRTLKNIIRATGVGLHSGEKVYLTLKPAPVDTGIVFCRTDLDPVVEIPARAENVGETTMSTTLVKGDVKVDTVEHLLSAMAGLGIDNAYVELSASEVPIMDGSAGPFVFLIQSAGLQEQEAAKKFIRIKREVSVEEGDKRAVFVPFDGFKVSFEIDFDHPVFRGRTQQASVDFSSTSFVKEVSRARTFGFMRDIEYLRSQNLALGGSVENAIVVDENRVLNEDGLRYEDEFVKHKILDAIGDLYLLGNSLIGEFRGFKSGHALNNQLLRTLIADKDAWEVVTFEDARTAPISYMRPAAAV
Description: In order to assess the compounds biological activity selected in vitro assays were conducted on selected compounds. One of the assays measured the compounds ability to disrupt the synthesis of lipopolysaccharide, LPS, which is a component of the outer membrane of Gram-negative bacteria. Disruption of this synthesis is lethal to the bacteria. The assay determined the compound's ability to inhibit LpxC, which is the first enzyme in the biosynthetic pathway for LPS (measured as IC50). Additionally, MICs (minimal inhibitory concentrations) were determined for several bacteria. The specific protocols are described below:
A) IC50 Assay LpxC Enzyme from P. aeruginosa Labeled as PA LpxC Enzyme IC50):
At the end of 1 hour, 5 ul of 1 N HCl was added to stop the enzyme reaction, the plates were centrifuged, and then processed with the BioTrove Rapidfire HTMS Mass Spectrometry System. A no-enzyme control was used in calculating the IC50 values from the percent conversion values.

[5] = P. aeruginosa LpxC enzyme 0.1 nM, 25° C., 1 hour, pH 8.0, read-out: PA:IC50

Row | SMILES | MIC [1] [µg/mL] | MIC [2] [µg/mL] | MIC [3] [µg/mL] | IC50 [4] [nM] | IC50 [4, 5] [nM]
1 | C[C@@](CCc1cc(-c2ccccc2)on1)(C(=O)NO)S(C)(=O)=O [Example 6, (2R)-N-hydroxy-2-methyl-2-(methylsulfonyl)-4-(5-phenylisoxazol-3-yl)butanamide] | 8 (≈ 23.6 µM) | > 64 | 0.25 (≈ 0.739 µM) | 0.51 | –
2 | CC(CCc1cc(-c2ccc(F)c(F)c2F)no1)(C(=O)NO)S(C)(=O)=O (racemic) [Example 36, N-hydroxy-2-methyl-2-(methylsulfonyl)-4-[3-(2,3,4-trifluorophenyl)isoxazol-5-yl]butanamide] | 16 (≈ 40.8 µM) | > 64 | 1 (≈ 2.55 µM) | – | 3.9
3 | CC(CCc1cc(-c2ncccc2F)no1)(C(=O)NO)S(C)(=O)=O (racemic) [Example 43, 4-[3-(3-fluoropyridin-2-yl)isoxazol-5-yl]-N-hydroxy-2-methyl-2-(methylsulfonyl)butanamide] | 64 (≈ 179 µM) | > 64 | 32 (≈ 89.5 µM) | – | > 100
4 | COc1ccccc1-c1cc(CCC(C)(C(=O)NO)S(C)(=O)=O)on1 (racemic) [Example 49, N-hydroxy-4-[3-(2-methoxyphenyl)isoxazol-5-yl]-2-methyl-2-(methylsulfonyl)butanamide] | > 64 | > 64 | 32 (≈ 86.9 µM) | – | 42.4
5 | CC(CCc1cc(-c2ccc3ccccc3n2)no1)(C(=O)NO)S(C)(=O)=O (racemic) [Example 35, N-hydroxy-2-methyl-2-(methylsulfonyl)-4-(3-quinolin-2-ylisoxazol-5-yl)butanamide] | 32 (≈ 82.2 µM) | > 64 | 8 (≈ 20.5 µM) | – | 22.1
6 | CC(CCc1cc(-c2ccccc2F)on1)(C(=O)NO)S(C)(=O)=O (racemic) [Example 8, 4-[5-(2-fluorophenyl)isoxazol-3-yl]-N-hydroxy-2-methyl-2-(methylsulfonyl)butanamide] | 16 (≈ 44.9 µM) | > 64 | 1 (≈ 2.81 µM) | 8.3 | –
7 | CC(CCc1cc(CNS(=O)(=O)c2ccc(F)cc2)on1)(C(=O)NO)S(C)(=O)=O (racemic) [Example 27, 4-[5-({[(4-fluorophenyl)sulfonyl]amino}methyl)isoxazol-3-yl]-N-hydroxy-2-methyl-2-(methylsulfonyl)butanamide] | > 64 | > 64 | > 64 | – | > 100
8 | COc1cccc(OC)c1-c1cc(CCC(C)(C(=O)NO)S(C)(=O)=O)no1 (racemic) [Example 24, 4-[5-(2,6-dimethoxyphenyl)isoxazol-3-yl]-N-hydroxy-2-methyl-2-(methylsulfonyl)butanamide] | > 64 | > 64 | > 64 | – | > 100
9 | COc1cccc(OC)c1-c1cc(CCC(C)(C(=O)NO)S(C)(=O)=O)on1 (racemic) [Example 32, 4-[3-(2,6-dimethoxyphenyl)isoxazol-5-yl]-N-hydroxy-2-methyl-2-(methylsulfonyl)butanamide] | > 64 | > 64 | > 64 | – | 88.7
10 | COc1ccc(-c2cc(CCC(C)(C(=O)NO)S(C)(=O)=O)on2)cc1OC (racemic) [Example 42, 4-[3-(3,4-dimethoxyphenyl)isoxazol-5-yl]-N-hydroxy-2-methyl-2-(methylsulfonyl)butanamide] | > 64 | > 64 | 64 (≈ 161 µM) | – | 38.6
11 | COc1ccc(-c2cc(CCC(C)(C(=O)NO)S(C)(=O)=O)on2)cc1 (racemic) [Example 47, N-hydroxy-4-[3-(4-methoxyphenyl)isoxazol-5-yl]-2-methyl-2-(methylsulfonyl)butanamide] | 16 (≈ 43.4 µM) | > 64 | 1 (≈ 2.71 µM) | – | 4.1
12 | CC(CCc1cc(-c2ccc(F)c(F)c2)no1)(C(=O)NO)S(C)(=O)=O (racemic) [Example 41, 4-[3-(3,4-difluorophenyl)isoxazol-5-yl]-N-hydroxy-2-methyl-2-(methylsulfonyl)butanamide] | 16 (≈ 42.7 µM) | > 64 | 2 (≈ 5.34 µM) | – | 6.8
13 | CC(CCc1cc(-c2cccc(F)c2)on1)(C(=O)NO)S(C)(=O)=O (racemic) [Example 21, 4-[5-(3-fluorophenyl)isoxazol-3-yl]-N-hydroxy-2-methyl-2-(methylsulfonyl)butanamide] | 32 (≈ 89.8 µM) | > 64 | 4 (≈ 11.2 µM) | 6.8 | –
14 | CCCCSC(=O)N(C)Cc1cc(CCC(C)(C(=O)NO)S(C)(=O)=O)no1 (racemic) [Example 14, S-butyl ({3-[4-(hydroxyamino)-3-methyl-3-(methylsulfonyl)-4-oxobutyl]isoxazol-5-yl}methyl)methylthiocarbamate] | > 64 | > 64 | > 64 | – | > 100
15 | CC(CCc1cc(-c2cccc(F)c2)no1)(C(=O)NO)S(C)(=O)=O (racemic) [Example 34, 4-[3-(3-fluorophenyl)isoxazol-5-yl]-N-hydroxy-2-methyl-2-(methylsulfonyl)butanamide] | 32 (≈ 89.8 µM) | > 64 | 2 (≈ 5.61 µM) | – | 9.3
16 | CC(CCc1cc(-c2ccc3c(c2)OCO3)no1)(C(=O)NO)S(C)(=O)=O (racemic) [Example 33, 4-[3-(1,3-benzodioxol-5-yl)isoxazol-5-yl]-N-hydroxy-2-methyl-2-(methylsulfonyl)butanamide] | 16 (≈ 41.8 µM) | > 64 | 2 (≈ 5.23 µM) | – | 5.1
17 | CCc1ccc(-c2cc(CCC(C)(C(=O)NO)S(C)(=O)=O)on2)s1 (racemic) [Example 7, 4-[3-(5-ethyl-2-thienyl)isoxazol-5-yl]-N-hydroxy-2-methyl-2-(methylsulfonyl)butanamide] | 4 (≈ 10.7 µM) | 64 (≈ 172 µM) | 0.5 (≈ 1.34 µM) | – | 1.1
18 | Cc1cc(-c2cc(CCC(C)(C(=O)NO)S(C)(=O)=O)no2)ccc1OC(F)F (racemic) [Example 22, 4-{5-[4-(difluoromethoxy)-3-methylphenyl]isoxazol-3-yl}-N-hydroxy-2-methyl-2-(methylsulfonyl)butanamide] | 8 (≈ 19.1 µM) | > 64 | 1 (≈ 2.39 µM) | – | 1.5
